# Assay results taken from article PMC9959676 (Molecules, 2023).
# Read-outs that look alike come from different tables or passages of the source.
# Tests used:
# [1] = DPPH free radical scavenging assay; conditions: 1.0 mL sample 0.5 mg/mL + 2 mL DPPH 0.2 mg/mL, 30 min, 517 nm
# Procedure: The DPPH assay was carried out to estimate the antioxidant potential among all the compounds [29]. Then, 2 mL (0.2 mg/mL in methyl alcohol) of DPPH was mixed with 1.0 mL (0.5 mg/mL in methyl alcohol) of the sample solution in a test tube. All the reaction tubes were covered with aluminum foil and kept aside for 30 min to complete the reaction. The activity was carried out in a dark room. […] A UV-visible spectrophotometer was employed to observe a reduction in the concentration of free radicals at 517 nm. The absorbance of the control (1.0 mL methanol + 2 mL DPPH solution) was also measured. All samples were evaluated in a triplicate manner, and the mean results were recorded. The standard antioxidant (ascorbic acid) was evaluated and set as a reference/standard. The percentage of inhibition (%) was calculated using the following formula in terms of scavenging activity(S):S (%) = [(Ab − Aa)/Ab] × 100(1) where Ab = Absorbance of control; and Aa = Absorbance of the test sample
# [2] = tested on: thoracic aorta segments; assay: Inhibition of phenylephrine-induced contraction on isolated aorta rings; parameters: species or system male Wistar rats; conditions: compounds 10^−4 M in organ bath, phenylephrine 10^−6 M, n = 5
# Procedure: (§1) Cervical disruption was used to eliminate male Wistar rats weighing 200 g and 300 g. The thoracic aorta segments (3 mm to 5 mm) were slightly pressed and […]. The tissues were placed in an organ bath filled with 10 mL of Krebs-Henseleit solution and kept at 37 °C. Then 95% oxygen and 5% carbon dioxide were passed through the above-mentioned solution. To record organ responses to phenylephrine, (10^−6 M) (Sigma, St. Louis, MO, USA) simulated contractions; isometric transducers and Gemini recorders (Ugo Basile, Varese, Italy) were assembled. Aortic rings were recon traced with phenylephrine (10^−6 M) and subjected to acetylcholine (10^−6 M) for recording endothelium-dependent relaxations (EDR). All synthesized compounds along with the standard (valsartan) were mixed in DMSO; whereas synthesized derivatives of concentration 10^−4 M were added in an organ bath. In conscious rats, systolic blood pressure was recorded by applying the tail-cuff method. Wistar rats of 200 g to 250 g weight were selected and divided into groups of five individuals. The chemicals were injected intraperitoneally at a dosage of 80 mg/kg body weight. The tail-cuff and a piezoelectric pulse sensor were coupled to a blood pressure analyzer and were positioned at the base of the tail (May 9610, Ankara, Turkey).
# (§2) All results were presented as the mean of SEM. (n = 5) and test compounds were employed for statistical significance determination.
# [3] = tested on: conscious rats; assay: Antihypertensive effect, systolic blood pressure by tail-cuff method in conscious rats; assay type: in vivo, Wistar rats; conditions: 80 mg/kg intraperitoneally, n = 5, Control 108.28 ± 6.87, DMSO 81.10 ± 3.21
# Procedure: as §1, §2
# [4] = target: urease (Canavalia ensiformis, UniProt P07374); assay: biochemical; assay type: biochemical
# Procedure: The activity performed was an improved procedure of the Berthelot assay. […] For 5 min, the mixture was incubated at 37 °C. Each well in a 96-well plate received 40 µL of urea stock solution (20 mM); incubated for 10 min at 37 °C. Afterwards, 115 µL phenol hypochlorite (45 µL phenol + 70 µL alkali) per well was added. Furthermore, all the contents were incubated for 10 min at 37 °C. Absorbance at 625 nm was measured. Using the provided formula, the % of enzyme-inhibition and IC-50 values were computed Inhibition (%age) = [Control − test/100(control)] where Control = [Total enzyme activity minus inhibitor]. The test is the test compounds’ activity
# [5] = tested on: Bacillus pumilus; assay: Antibacterial agar-well diffusion; assay type: cell-based; conditions: sample 100 mg/5 mL in DMSO; ceftriaxone sodium 20 mg/10 mL; 37 °C, 24 h; 6 mm wells
# Procedure: (§3) After sterilizing the Mueller Hinton agar medium on plates in an autoclave and allowing it to cool to roughly 45 °C, a 100 µL standard inoculum was aseptically mixed, chilled till 37 °C, and 6 mm wells were formed in the inoculated plates. The volume of 100 μL (100 mg/5 mL in DMSO), ceftriaxone sodium (20 mg/10 mL in DMSO) as a positive control, and pure DMSO as a negative control; 30 μL of the sample solution was incorporated into these wells. These primed plates were incubated at 37 °C for 24 h prior to record inhibitory zones in millimeters.
# [6] = tested on: Escherichia coli; assay: Antibacterial agar-well diffusion; assay type: cell-based; conditions: sample 100 mg/5 mL in DMSO; ceftriaxone sodium 20 mg/10 mL; 37 °C, 24 h; 6 mm wells
# Procedure: as §3
# [7] = tested on: Pseudomonas aeruginosa; assay: Antibacterial agar-well diffusion; assay type: cell-based; conditions: sample 100 mg/5 mL in DMSO; ceftriaxone sodium 20 mg/10 mL; 37 °C, 24 h; 6 mm wells
# Procedure: as §3
# [8] = tested on: Staphylococcus aureus; assay: Antibacterial agar-well diffusion; assay type: cell-based; conditions: sample 100 mg/5 mL in DMSO; ceftriaxone sodium 20 mg/10 mL; 37 °C, 24 h; 6 mm wells
# Procedure: as §3
# [9] = urease, pH 7.0, 37 °C, read-out: IC50 ± SEM
# Sequence of urease (P07374 whole entry, looked up): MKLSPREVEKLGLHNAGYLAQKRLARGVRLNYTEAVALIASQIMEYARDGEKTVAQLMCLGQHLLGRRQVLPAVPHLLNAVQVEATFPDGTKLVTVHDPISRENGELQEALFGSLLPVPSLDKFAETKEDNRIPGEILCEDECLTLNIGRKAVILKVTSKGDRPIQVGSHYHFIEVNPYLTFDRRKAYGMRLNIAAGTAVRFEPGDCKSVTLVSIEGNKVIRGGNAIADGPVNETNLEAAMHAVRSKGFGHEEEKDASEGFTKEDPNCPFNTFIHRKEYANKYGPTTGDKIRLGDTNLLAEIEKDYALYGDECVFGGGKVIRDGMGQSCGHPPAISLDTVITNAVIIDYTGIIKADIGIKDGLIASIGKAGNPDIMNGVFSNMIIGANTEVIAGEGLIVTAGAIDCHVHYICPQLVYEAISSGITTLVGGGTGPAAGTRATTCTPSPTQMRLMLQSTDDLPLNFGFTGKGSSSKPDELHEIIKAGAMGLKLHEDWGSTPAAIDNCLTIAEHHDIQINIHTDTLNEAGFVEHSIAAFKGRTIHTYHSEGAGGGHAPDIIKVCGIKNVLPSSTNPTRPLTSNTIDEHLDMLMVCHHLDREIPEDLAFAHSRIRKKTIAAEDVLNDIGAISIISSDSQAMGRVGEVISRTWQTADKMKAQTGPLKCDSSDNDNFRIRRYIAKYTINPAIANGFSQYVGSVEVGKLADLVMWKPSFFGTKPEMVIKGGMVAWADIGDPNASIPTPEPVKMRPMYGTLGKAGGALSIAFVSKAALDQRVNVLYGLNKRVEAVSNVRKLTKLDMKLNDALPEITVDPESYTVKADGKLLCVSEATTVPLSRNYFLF
SMILES,%Age Inhibition ± SEM [1],%ge inh. of Phenylephrine Cont. (±SEM) [2],Mean of Systolic Blood Pressure ± SEM [3],"IC50 [4, 9]",Zone of Inhibition Gram +ve Bacteria B.pumilus Mean ± SEM [5],Zone of Inhibition Gram -Ve Bacteria E. coli Mean ± SEM [6],Zone of Inhibition Gram -Ve Bacteria P. aeruginosa Mean ± SEM [7],Zone of Inhibition Gram +ve Bacteria S. aureus Mean ± SEM [8],folds more urease inhibition than standard Thiourea ([4]; relative to Thiourea IC50),"inhibition at 100 µM ([2]; Rattus norvegicus, read-out: %ge inh. of Phenylephrine Cont. (±SEM))",IC50 [4]
"CCCCC(=O)N(Cc1ccc(-c2ccccc2-c2nn[nH]n2)cc1)C(C(=O)Oc1ccc(C=O)cc1)C(C)C (centres unmarked) [AV6, 4-formylphenyl2-(N-((2′-(2H-tetrazol-5-yl)-[1, 1′-biphenyl]-4yl)methyl)pentanamido)-3methyl butanoate]",76.3 ± 0.46%,67.4 ± 5.1%,81.21 ± 3.21,2130 ± 970 nM,11.76 ± 1.06 millimeters,09.73 ± 0.44 millimeters,10.73 ± 0.28 millimeters,12.86 ± 0.72 millimeters,,,
"CCCCC(=O)N(Cc1ccc(-c2ccccc2-c2nn[nH]n2)cc1)C(C(=O)Oc1cc(C)ccc1C(C)C)C(C)C (centres unmarked) [AV8, 2-isopropyl-5-methylphenyl 2-(N-((2′-(2H-tetrazol-5yl)-[1, 1′-biphenyl]-4 yl)methyl)pentanamido)-3methyl butanoate]",95.3 ± 0.55%,71.6 ± 6.5%,71.56 ± 4.32,,12.6 ± 0.60 millimeters,11.21 ± 0.41 millimeters,12.23 ± 0.27 millimeters,12.66 ± 1.06 millimeters,3 folds,,
"CCCCC(=O)N(Cc1ccc(-c2ccccc2-c2nn[nH]n2)cc1)C(C(=O)Oc1ccc2ccccc2c1)C(C)C (centres unmarked) [AV10, naphthalen-2-yl 2-(N-((2′-(2H-tetrazol-5-yl)-[1,1′-biphenyl]-4 yl)methyl)pentanamido)-3methyl butanoate]",94.4 ± 0.52%,69.8 ± 6.7%,75.82 ± 4.12,2050 ± 1050 nM,10.30 ± 0.21 millimeters,10.40 ± 0.56 millimeters,12.63 ± 0.63 millimeters,12.13 ± 0.37 millimeters,,,
"CCCCC(=O)N(Cc1ccc(-c2ccccc2-c2nn[nH]n2)cc1)C(C(=O)Oc1ccccc1C(=O)O)C(C)C (centres unmarked) [AV11, 2-((2-(N-((2′-(2H-tetrazole-5-yl)-[1,1′-biphenyl]-4yl)methyl)pentanamido)-3-methylbutanoyl)oxy) benzoic acid]",95.6 ± 0.54%,,72.71 ± 3.21,,10.66 ± 0.52 millimeters,10.01 ± 0.55 millimeters,11.46 ± 0.53 millimeters,12.53 ± 0.68 millimeters,,70.8 ± 7.7%,2190 ± 170 nM
